Values of other authors, collected in patent US20230071934A1, “NOVEL USES” (Intra-Cellular Therapies, Inc., priority 2019, published 2023).

Target: T1, sEH (Homo sapiens, UniProt P34913)
T1 sequence (P34913 1-555): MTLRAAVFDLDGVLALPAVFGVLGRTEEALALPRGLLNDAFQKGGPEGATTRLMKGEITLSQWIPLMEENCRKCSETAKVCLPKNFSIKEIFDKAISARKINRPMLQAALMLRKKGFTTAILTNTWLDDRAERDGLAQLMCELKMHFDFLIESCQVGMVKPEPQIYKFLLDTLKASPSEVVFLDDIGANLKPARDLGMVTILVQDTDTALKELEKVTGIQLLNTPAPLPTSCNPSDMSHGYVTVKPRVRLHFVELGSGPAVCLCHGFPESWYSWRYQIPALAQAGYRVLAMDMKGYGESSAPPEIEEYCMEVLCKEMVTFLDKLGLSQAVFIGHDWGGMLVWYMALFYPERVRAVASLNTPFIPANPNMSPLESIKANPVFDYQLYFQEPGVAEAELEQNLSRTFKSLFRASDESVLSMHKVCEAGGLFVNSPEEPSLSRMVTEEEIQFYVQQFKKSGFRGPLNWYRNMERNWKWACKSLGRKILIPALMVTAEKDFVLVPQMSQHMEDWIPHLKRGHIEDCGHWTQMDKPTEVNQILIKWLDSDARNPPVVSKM

activity as an inhibitor of sEH: particularly high activity
SMILES: CCCCCCCCCCCCNC(=O)NC12CC3CC(CC(C3)C1)C2 [ADU, N-Adamantyl-N′-dodecyl urea]
